Experimental data taken from ChEMBL document CHEMBL1130541, “Investigation into the preferred conformation of gabapentin for interaction with its binding site on the 2 subunit of a calcium channel” (Bioorg Med Chem Lett, 1997).

How the values were obtained:
[1] = Binding affinity against alpha2-delta subunit of rat calcium channel
Rattus norvegicus = organism: Rattus norvegicus; assay: Percent inhibition of binding to alpha2-delta subunit of rat calcium channel at 10 uM

Compound | IC50 [1] [nM] | inhibition (Rattus norvegicus) [%]
C[C@@H]1C[C@H](C)C[C@@](CN)(CC(=O)O)C1 | 143 | 
C[C@@H]1C[C@H](C)C[C@](CN)(CC(=O)O)C1 |  | 38
C[C@H]1CC[C@@](CN)(CC(=O)O)CC1 | 420 | 
C[C@H]1CC[C@](CN)(CC(=O)O)CC1 |  | 17
